Patent US20230279025A1, “KRAS G12D INHIBITORS” (Mirati Therapeutics, Inc., priority 2020, published 2023)
pIC50, pKd: −log10 of the molar value. Read-outs that look alike come from different tables or passages of the source.

What was measured:
[1] = system: KRas G12D-mediated phosphorylation of ERK in AGS cells (ATCC CRL-1739) expressing G12D; test: Inhibition of KRas G12D-mediated Phosphorylation of ERK in AGS cells; format: cell-based; conditions: Homo sapiens
Procedure: Cells were plated in tissue culture treated 96 well plates at a density of 40,000 cells/well and allowed to attach for 12-14 hours. Diluted compounds were then added in a final concentration of 0.5% DMSO. After 3 hours, the medium was removed, 150 μL of 4.0% formaldehyde was added and the plates incubated at room temperature for 20 minutes. The plates were washed with PBS, and permeabilized with 150 μL of ice cold 100% methanol for 10 minutes. Non-specific antibody binding to the plates was blocked using […] Licor blocking buffer (Li-Cor Biotechnology, Lincoln Nebr.) for 1 hour at room temperature.
The amount of phospho-ERK was determined using an antibody specific for the phosphorylated form of ERK and compared to the amount of GAPDH. Primary antibodies used for the detection were added as follows: Phospho-ERK(Cell Signaling cs-9101) diluted 1:500 and GAPDH(Millipore MAB374) diluted 1:5000 in Licor block+0.05% Tween 20. The plates were incubated for 2 hours at room temperature. The plates were washed with PBS+0.05% Tween 20.
Secondary antibodies used to visualize primary antibodies were added as follows: Anti-rabbit-680 diluted 1:1000 and Anti-mouse-800 diluted 1:1000 both in Licor block+0.05% TweeN20, and were incubated for 1 hour at room temperature. The plates were washed with PBS +0.05% Tween 20. A 100 μL aliquot of PBS was added to each well and the plates were read on a Li-Cor Odyssey CLX plate reader.

KRas G12D [2] = biological target: T1, KRas G12D (Homo sapiens (Human), UniProt P01116, G12D); test: KRas G12D Binding Assay (TR-FRET displacement of Cy5 labelled tracer); conditions: GDP-loaded KRAS G12D (amino acids 1:169), 60 minute incubation at 22° C.
Procedure: After a 60 minute incubation at 22° C., the reaction was measured using a PerkinElmer EnVision multimode plate reader via TR-FRET dual wavelength detection, and the percent of control (POC) calculated using a ratiometric emission factor. […] The POC values were fit to a 4-parameter logistic curve and the IC50 value was determined as the concentration where the curve crosses 50 POC.
ND stands for “not determined.”
Target sequence in this assay (P01116 other isoform, or with tags, fused parts or gaps G12D): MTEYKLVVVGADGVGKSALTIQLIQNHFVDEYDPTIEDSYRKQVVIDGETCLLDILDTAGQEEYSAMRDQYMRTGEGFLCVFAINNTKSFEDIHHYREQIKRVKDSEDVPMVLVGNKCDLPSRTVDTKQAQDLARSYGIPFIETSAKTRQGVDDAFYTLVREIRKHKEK

KRas G12D [3] = biological target: T1, KRas G12D; test: KRas G12D Surface Plasmon Resonance (SPR) Binding Assay; conditions: Biacore T200, immobilized biotinylated KRAS protein, 1:1 binding model
Target sequence in this assay (P01116-2 other isoform, or with tags, fused parts or gaps G12D): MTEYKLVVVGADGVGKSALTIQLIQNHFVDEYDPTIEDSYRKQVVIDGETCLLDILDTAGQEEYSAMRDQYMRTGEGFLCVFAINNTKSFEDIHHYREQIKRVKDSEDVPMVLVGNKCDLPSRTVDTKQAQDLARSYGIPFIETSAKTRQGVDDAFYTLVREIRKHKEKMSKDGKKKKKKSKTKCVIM

[4] = phospho-ERK(Thr202/Tyr204) normalized to GAPDH, AGS cells, 3 hours, read-out: IC50

Structure (SMILES) | pIC50 [1, 4] | pIC50 (KRas G12D [2]) | pIC50 ([1]; AGS, 3 h) | pKd (KRas G12D [3])
C#Cc1c(F)ccc2cc(O)cc(-c3ncc4c(N5C[C@H]6CC[C@@H](C5)N6)nc(OC[C@]56CCCN5C[C@@H](F)C6)nc4c3F)c12 [Example 482, 4-(4-((1R,5S)-3,8-diazabicyclo[3.2.1]octan-3-yl)-8-fluoro-2-(((2S,7aR)-2-fluorohexahydro-1H-pyrrolizin-7a-yl)methoxy)pyrido[4,3-d]pyrimidin-7-yl)-5-ethynyl-6-fluoronaphthalen-2-ol] | 8.47 |  |  | 
Fc1c(-c2cccc3cccc(Cl)c23)ncc2c(N3C[C@H]4CC[C@@H](C3)N4)nc(OCCCN3C[C@@H]4C[C@H]3CO4)nc12 [Example 103, (1S,4S)-5-(3-((4-((1R,5S)-3,8-diazabicyclo[3.2.1]octan-3-yl)-7-(8-chloronaphthalen-1-yl)-8-fluoropyrido[4,3-d]pyrimidin-2-yl)oxy)propyl)-2-oxa-5-azabicyclo[2.2.1]heptane] | < 4.78 |  |  | 
CCc1cccc2cccc(-c3ncc4c(N5CC6CCC(C5)N6)nc(OC[C@]56CCCN5[C@@H](COC(=O)NC)CC6)nc4c3F)c12 (single isomer, unassigned) [Example 432] | 6.97 | 8.72 |  | 
CCc1cccc2cc(O)cc(-c3ncc4c(N5C[C@H]6CC[C@@H](C5)N6)nc(OC[C@]56CCCN5C[C@@H](F)C6)nc4c3F)c12 [Example 468, 4-(4-((1R,5S)-3,8-diazabicyclo[3.2.1]octan-3-yl)-8-fluoro-2-(((2S,7aR)-2-fluorohexahydro-1H-pyrrolizin-7a-yl)methoxy)pyrido[4,3-d]pyrimidin-7-yl)-5-ethylnaphthalen-2-ol] | 7.54 | > 11.70 |  | 
CCc1cccc2cccc(-c3ncc4c(N5CC6CCC(C5)N6)nc(OC[C@]56CCCN5[C@@H](COC(=O)N5CCOCC5)CC6)nc4c3F)c12 (single isomer, unassigned) [Example 431] | 7.13 | 8.85 |  | 
Cc1cc2[nH]ncc2c(-c2ncc3c(N4C[C@H]5CC[C@@H](C4)N5)nc(OCC45CCCN4CC(F)C5)nc3c2F)c1Cl (mixture of isomers) [Example 376, 4-((1R,5S)-3,8-diazabicyclo[3.2.1]octan-3-yl)-7-(5-chloro-6-methyl-1H-indazol-4-yl)-8-fluoro-2-((2-fluorotetrahydro-1H-pyrrolizin-7a(5H)-yl)methoxy)pyrido[4,3-d]pyrimidine] | 6.23 |  |  | 
C#Cc1c(F)ccc2cc(O)cc(-c3ncc4c(N5C[C@H]6CC[C@@H](C5)N6)nc(OC[C@@]56CCCCN5C[C@H](F)C6)nc4c3F)c12 [Example 469, 4-(4-((1R,5S)-3,8-diazabicyclo[3.2.1]octan-3-yl)-8-fluoro-2-(((2R,8aS)-2-fluorooctahydroindolizin-8a-yl)methoxy)pyrido[4,3-d]pyrimidin-7-yl)-5-ethynyl-6-fluoronaphthalen-2-ol] | 7.50 | > 11.70 |  | 
CN1CC[C@H](Oc2cccc(S(=O)(=O)F)c2)[C@H]1COc1nc(N2C[C@H]3CC[C@@H](C2)N3)c2cnc(-c3cccc4cccc(Cl)c34)c(F)c2n1 [Example 210, 3-(((2R,3S)-2-(((4-((1R,5S)-3,8-diazabicyclo[3.2.1]octan-3-yl)-7-(8-chloronaphthalen-1-yl)-8-fluoropyrido[4,3-d]pyrimidin-2-yl)oxy)methyl)-1-methylpyrrolidin-3-yl)oxy)benzenesulfonyl fluoride tris(2,2,2-trifluoroacetate)] |  | 5.26 | < 4.78 | 
CC(C)Cn1ccnc1CCOc1nc(N2C[C@H]3CC[C@@H](C2)N3)c2cnc(-c3cc(O)cc4ccccc34)c(F)c2n1 [Example 85, 4-(4-((1R,5S)-3,8-diazabicyclo[3.2.1]octan-3-yl)-8-fluoro-2-(2-(1-isobutyl-1H-imidazol-2-yl)ethoxy)pyrido[4,3-d]pyrimidin-7-yl)naphthalen-2-ol] |  | 6.34 |  | 6.83
CN(C)C1CN(c2nc(N3C[C@H]4CC[C@@H](C3)N4)c3cnc(-c4cc(O)cc5ccccc45)c(F)c3n2)C1 [Example 120, 4-(4-((1R,5S)-3,8-diazabicyclo[3.2.1]octan-3-yl)-2-(3-(dimethylamino)azetidin-1-yl)-8-fluoropyrido[4,3-d]pyrimidin-7-yl)naphthalen-2-ol bis(2,2,2-trifluoroacetate)] |  | 7.54 |  | 7.38
Cn1nccc1COc1nc(N2C[C@H]3CC[C@@H](C2)N3)c2cnc(-c3cc(O)cc4ccccc34)c(F)c2n1 [Example 5, 4-(4-((1R,5S)-3,8-diazabicyclo[3.2.1]octan-3-yl)-8-fluoro-2-((1-methyl-1H-pyrazol-5-yl)methoxy)pyrido[4,3-d]pyrimidin-7-yl)naphthalen-2-ol] |  | 6.14 |  | 6.53
CN1CCC[C@H]1COc1nc(N2CC3CCC(Cl)(C2)N3)c2cnc(-c3cc(O)cc4ccccc34)c(F)c2n1 (stereo partly drawn) [Example 160, 4-(4-(1-chloro-3,8-diazabicyclo[3.2.1]octan-3-yl)-8-fluoro-2-(((S)-1-methylpyrrolidin-2-yl)methoxy)pyrido[4,3-d]pyrimidin-7-yl)naphthalen-2-ol bis(2,2,2-trifluoroacetate)] |  | 6.92 |  | 9.52
Fc1ccc2cccc(-c3ncc4c(N5C[C@H]6CC[C@@H](C5)N6)nc(OCCc5cccnc5)nc4c3F)c2c1 [Example 90, 4-((1R,5S)-3,8-diazabicyclo[3.2.1]octan-3-yl)-8-fluoro-7-(7-fluoronaphthalen-1-yl)-2-(2-(pyridin-3-yl)ethoxy)pyrido[4,3-d]pyrimidine] |  | 5.35 |  | 5.11
Cc1ccc2[nH]ncc2c1-c1ncc2c(N3C[C@H]4CC[C@@H](C3)N4)nc(OCCc3nccn3C)nc2c1F [Example 88, 4-((1R,5S)-3,8-diazabicyclo[3.2.1]octan-3-yl)-8-fluoro-2-(2-(1-methyl-1H-imidazol-2-yl)ethoxy)-7-(5-methyl-1H-indazol-4-yl)pyrido[4,3-d]pyrimidine] |  | 5.15 |  | 4.81
CC1CCCc2cccc(-c3ncc4c(N5CC6CCC(C5)N6)nc(OC[C@@H]5CCCN5C)nc4c3F)c21 (stereo partly drawn) [Example 133, 4-((I R,5S)-3,8-diazabicyclo[3.2.1]octan-3-yl)-8-fluoro-7-(8-methyl-5,6,7,8-tetrahydronaphthalen-1-yl)-2-(((S)-1-methylpyrrolidin-2-yl)methoxy)pyrido[4,3-d]pyrimidine] |  | 7.31 |  | 6.95
Oc1cc(-c2ncc3c(N4C[C@H]5CC[C@@H](C4)N5)nc(OC4CCOCC4)nc3c2F)c2ccccc2c1 [Example 72, 4-(4-((1R,5S)-3,8-diazabicyclo[3.2.1]octan-3-yl)-8-fluoro-2-((tetrahydro-2H-pyran-4-yl)oxy)pyrido[4,3-d]pyrimidin-7-yl)naphthalen-2-ol] |  | 6.29 |  | 6.29
Oc1cc(-c2ncc3c(N4C[C@H]5CC[C@@H](C4)N5)nc(OCCc4ccccc4)nc3c2F)c2ccccc2c1 [Example 96, 4-(4-((1R,5S)-3,8-diazabicyclo[3.2.1]octan-3-yl)-8-fluoro-2-phenethoxypyrido[4,3-d]pyrimidin-7-yl)naphthalen-2-ol] |  | 5.65 |  | 6.15
Cn1ccnc1CCOc1nc(N2C[C@H]3CC[C@@H](C2)N3)c2cnc(-c3cccc4ccc(F)cc34)c(F)c2n1 [Example 112, 4-((1R,5S)-3,8-diazabicyclo[3.2.1]octan-3-yl)-8-fluoro-7-(7-fluoronaphthalen-1-yl)-2-(2-(1-methyl-1H-imidazol-2-yl)ethoxy)pyrido[4,3-d]pyrimidine] |  | 6.14 |  | 6.01
Cn1ccnc1COc1nc(N2C[C@H]3CC[C@@H](C2)N3)c2cnc(-c3cc(O)cc4ccccc34)c(F)c2n1 [Example 104, 4-(4-((1R,5S)-3,8-diazabicyclo[3.2.1]octan-3-yl)-8-fluoro-2-((1-methyl-1H-imidazol-2-yl)methoxy)pyrido[4,3-d]pyrimidin-7-yl)naphthalen-2-ol] |  | 5.78 |  | 6.44
CC(C)N1CCC[C@H]1COc1nc(N2C[C@H]3CC[C@@H](C2)N3)c2cnc(-c3cccc4cccc(Cl)c34)c(F)c2n1 [Example 29, 4-((1R,5S)-3,8-diazabicyclo[3.2.1]octan-3-yl)-7-(8-chloronaphthalen-1-yl)-8-fluoro-2-(((S)-1-isopropylpyrrolidin-2-yl)methoxy)pyrido[4,3-d]pyrimidine] |  | 6.79 |  | 6.77
